From the METLIN SMRT retention time set (Domingo-Almenara et al. 2019)

Assay: gradient 5% acetonitrile 3 min, to 50% in 2 min, to 85% in 15 min, held 3 min, 100 µL/min
Conditions: column: Zorbax Extend-C18 2.1 x 50 mm; eluents: water / acetonitrile, 0.1% formic acid
Summary of the method: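 Using water and acetonitrile that each contained 0.1% formic acid, mixtures of ~100 pure standards were separated at 100 μL/min on a Zorbax Extend-C18 column (2.1 × 50 mm, 1.8 μm). The HPLC fed a quadrupole time-of-flight mass spectrometer working in positive and negative ionization mode, with dead and dwell volumes of 40 μL and 900 μL. Data were acquired over 3 months. Retention time was read from computationally picked adduct peaks after manual inspection of each.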

Compound	RP-LC retention time [s]
N#Cc1ccc(NC(=O)C2Oc3ccccc3NC2=O)cc1 (stereo not given)	727
O=C(NCc1cccnc1)C1CCCN(C(=O)c2cc3ccsc3n2Cc2cccc(Cl)c2)C1 (stereo not given)	711
Cc1cccnc1NC(=O)C1CCN(S(=O)(=O)c2cn(C(C)C)cn2)CC1	591
Cn1cnc(S(=O)(=O)N2CCC(C(=O)Nc3ccc(F)c(F)c3)CC2)c1	709
CC(NC(=O)c1sc2ncccc2c1-n1cccc1)c1ccc(F)cc1 (stereo not given)	1070
Cc1ccc2c(c1)N(C(=O)Cn1ccn3nc(-c4ccc(F)cc4)c(CO)c3c1=O)CCO2	930
CCOC(=O)N1CCN(Cc2nc(-c3ccc(N4CCCC(C)C4)nc3)no2)CC1 (stereo not given)	855
COCCN1C(=O)c2cccn2CC1CNS(=O)(=O)c1c(C)noc1C (stereo not given)	689
O=C(CSc1nnc(NC(=O)c2c(F)cccc2Cl)s1)c1ccccc1	888
O=C(NCCCN1CCOCC1)c1cc(-c2ccccc2)nc2n[nH]c(-c3ccccc3)c12	610
Cc1ccc(CN2CCC(c3nc(-c4cnccn4)n[nH]3)CC2)c(C)c1	593
O=C(CCC[C@@H]1[C@H]2CCCN3CCC[C@@H](CN1C(=O)c1ccccc1)[C@@H]23)Nc1ccc2c(c1)OCCO2	647
Fc1ccc(-c2nnc(-c3ccc(-n4ccnc4)nc3)o2)c(F)c1	645
CCC1CCCCN1S(=O)(=O)c1cc(-c2nnc(C)o2)co1 (stereo not given)	857
O=C(Cn1cnc(-c2cccs2)cc1=O)NCCn1nc(-c2ccco2)ccc1=O	636
Cn1nc(-c2nnc(-c3ccccc3F)o2)c2c1CCN(S(=O)(=O)c1ccc(C#N)cc1)C2	894
CC(C)CNC(=O)c1cc(=O)[nH]c2ccccc12	729
O=C(NC1CCCCC1)N1CCCC1c1nc(-c2cccc(F)c2)no1 (stereo not given)	984
CN(C)S(=O)(=O)c1ccc2c(c1)N(CC(=O)NCCN1CCCC1)C(=O)C1CCCCN21 (stereo not given)	627
CCCc1cc(C2CCCN2C(=O)Nc2ccccc2OC)no1 (stereo not given)	901
CCOc1ccc(CNC(=O)c2c(C)sc3ccn(CC(C)C)c(=O)c23)cc1	1010
O=C(CCn1cnc2cc(-c3noc(/C=C/c4cccs4)n3)ccc21)N1CCCC1	774
Cc1cc(C)c(C(=O)N2CCC(CC(=O)NC(c3cccs3)C(C)C)CC2)[nH]1 (stereo not given)	863

Compound	RP-LC retention time [s]
O=C1CN(C(=O)c2cccc(C(F)(F)F)c2)c2ccccc2N1	732
COCCc1noc(-c2cnc3nc(C)ccc3c2Nc2cccc(F)c2)n1	729
Cc1cc(C)c(CNC(=O)c2c(C)sc3ccn(C)c(=O)c23)c(C)c1	921
CCCCN1N=C(C(=O)N2CCC(C)CC2)S(=O)(=O)c2ccccc21	1030
COc1ccc(CNC(=O)c2ccc3c(c2)NC(=O)C2CCCCN32)cc1OC (stereo not given)	719
CN(C)c1ncncc1N1CCC(C(=O)NCCC2=CCCCC2)CC1	679
O=C(NCc1ccccc1)c1nnc(-c2ccc(S(=O)(=O)N3CCCCC3)cc2)o1	953
COc1ccc(C(=O)N2CCN(c3ccc(=O)n(-c4cccc(Cl)c4)n3)CC2)cc1OC	784
CC(=O)N1CCCC1c1nc(C2CN(S(=O)(=O)C(C)C)C2)no1 (stereo not given)	635
O=C(CS(=O)(=O)Cc1ccccc1)Nc1nc2cc3c(cc2s1)OCO3	790
CC(C)CCNC(=O)NCCc1cn(C)c2ncccc12	649
O=C(NCc1cccs1)c1nc(-c2ccc(N3CCCC3)cc2)no1	1110
COC(=O)c1ccc(NC(=O)Cc2csc(NC(=O)c3ncccn3)n2)cc1	642
COc1ccc(-c2noc(C3CC(=O)N(c4ccc5c(c4)OCO5)C3)n2)c(OC)c1 (stereo not given)	816
COc1cc(OC)cc(-c2noc(CCn3nc(-c4ccc5c(c4)OCO5)ccc3=O)n2)c1	908
CC(=O)N1CCc2cc(-c3ccc(C(=O)NCCCN4CCCCC4)cc3)ccc21	616
O=C(NC1CCCCCC1)C1CCCN(S(=O)(=O)c2c[nH]c(C(=O)N3CCCC3)c2)C1 (stereo not given)	815
CCCNc1cc(N2CCC(CCC(=O)NCCc3cccnc3)CC2)ncn1	542
COc1cc(CN2CCC3(CCC(CN4CCOCC4)O3)CC2)ccc1OCC(C)C (stereo not given)	598
CCOc1ncccc1CNC(=O)Cc1ccsc1	771
COc1ccc(OC)c(COCC(O)CN2CCN(Cc3ccccc3)CC2)c1 (stereo not given)	557
CCOC(=O)c1nc(NC(C)c2ccccc2)c2ccccc2n1 (stereo not given)	794
O=C1NCCCCCN(C(=O)CN2CCCCCC2)[C@H]2CCC[C@@H]12	567

Compound	RP-LC retention time [s]
Cc1ccc(NC(=O)C2CCCN(c3ccc(-n4ccnc4)nn3)C2)cc1F (stereo not given)	597
Cn1ncc2c(Nc3cccc([N+](=O)[O-])c3)ncnc21	683
Cc1nc2c(C(=O)NCCN3CCOCC3)cnn2c(C)c1Cc1ccccc1Cl	678
O=C(Cn1cccc1-c1nnc(C2CCC2)o1)NCc1ccc(F)cc1	832
CCN1CCn2cc(S(=O)(=O)Nc3ccc(OC)c(Cl)c3)cc2C1=O	730
Cc1ccc(NC(=O)c2cc(C3CC3)n3nccc3n2)c(C)c1	1110
CC(C)c1ccc(S(=O)(=O)N2CCC3(CC2)NCCN=C3NCc2ccccc2)cc1	791
CCc1ccc(OCc2ccc(C(=O)Nc3nc(-c4ccccc4)cs3)o2)cc1	1270
Cc1ccc(-c2nc3cccc(C)n3c2Nc2ccc3c(c2)OCCO3)cc1	710
O=C(Cn1cccc1-c1nnc(-c2ccccc2)o1)N1CCN(c2cccc(Cl)c2)CC1	1120
COCc1nc2nccc(-c3ccccc3)n2n1	672
C=CCNc1nc(-c2cccc([N+](=O)[O-])c2)cs1	949
Cc1csc(COc2ccc(C(=O)NC(C)CCc3ccccc3)cc2)n1 (stereo not given)	595
O=C(C1CCN(c2nc3ccc(-c4cccc(F)c4)nc3s2)CC1)N1CCCCC1	1070
Cc1cccc(C)c1NC(=O)N(C)CC1CCOCC1	692
CCOC(=O)Cn1c(C2CC(=O)N(c3ccc(OC)cc3)C2)nc2ccccc21 (stereo not given)	762
COc1ccccc1-c1nnc(-c2ccc(Cl)c(S(=O)(=O)N3CCC(C)CC3)c2)o1	1190
Cc1ccc(-c2nc(-c3ccc4ncn(C)c4c3)no2)cc1C	842
Cc1ccc(C)c(CNC(=O)C2CCc3nc(N4CCOCC4)ncc3C2)c1 (stereo not given)	888
CC(C)CN1N=C(C(=O)N2CCOCC2)S(=O)(=O)c2ccc(Cl)cc21	813
CCOc1ccc(-c2nc(-c3ccc4c(c3)oc(=O)n4C)no2)cc1	1130
Cc1cc(C(=O)N2CCCCCC2c2nnc(C)o2)on1 (stereo not given)	669
Cc1c(Cl)cccc1Nc1c(-c2ccccc2)nc2cnccn12	997

Compound	RP-LC retention time [s]
Cc1ccc2nc(-c3cccc(Cl)c3)c(Nc3ccc4c(c3)OCCO4)n2c1	724
Cc1ccc(CNC(=O)C2CCN(S(=O)(=O)c3cc(C(=O)N4CCCCCC4)cs3)CC2)o1	862
CCOC(=O)c1cc([N+](=O)[O-])sc1NC(=O)c1ccc(Cl)s1	1310
Cc1ccc(-c2noc(C3CCCN3S(=O)(=O)c3cc(C)ccc3C)n2)cc1 (stereo not given)	1240
Cc1nc2nc(-c3ccccc3)nn2c(C)c1CC(=O)NC(C)C	700
CCC(C)NC(=O)N1c2cccnc2N(C(C)C)C(=O)C1C (stereo not given)	850
COC(=O)c1ccc(N2C=C(C#N)S(=O)(=O)c3c(F)cccc32)cc1	858
CNC(=O)[C@@H]1C[C@H](Oc2ccccc2)CN1C(=O)c1ccco1	670
CCn1cnc(S(=O)(=O)N2CCC(C(=O)NCc3ccc(OC)cc3)CC2)c1	674
COc1ccccc1Nc1c(-c2ccc3c(c2)OCO3)nc2cnccn12	859
CC(=O)N1CCc2cc(N3CC(C(=O)N4CCC5(CC4)OCCO5)CC3=O)ccc21 (stereo not given)	620
CCc1ccccc1S(=O)(=O)N1CCC(C(=O)NCc2csc(-c3ccccc3)n2)CC1	999
CCOC(=O)c1noc2nc(C)nc(Nc3ccc(Cl)cc3)c12	1200
CCOC(=O)c1cc(OC)c(OC)cc1NC(=O)c1cc(OC)c(OC)c(OC)c1	1030
CCC1CCCCN1C(=O)CSc1nc2c3cc(OC)ccc3n(C)c2c(=O)n1CC (stereo not given)	1070
CN(C)c1ccc(CCCNC(=O)C2CC2)cc1	525
CC(C)NC(=O)C1CCCN(c2nc3ncn(CC(=O)Nc4ccc(F)c(F)c4)c(=O)c3s2)C1 (stereo not given)	716
CCc1ccc(OCC(O)Cn2c(C3CC3)nc3ccccc32)cc1 (stereo not given)	739
CCOc1cc(-c2ccc(C)cc2)nc2ccc(NC(=O)c3ccco3)cc12	764
CCOC(=O)C1CCCN(C(=O)CCCn2c(=O)c3cccn3c3ccc(Br)cc32)C1 (stereo not given)	971
CCN(C(=O)Nc1ccccc1C(F)(F)F)c1nc(-c2ccc(C)cc2)cs1	576
